According to patent publication US6737383B1, “Herbicidal oxadiazolidines” (priority 1999, dated 2004):

Columns and labels:
bedstraw = experiment: Test B pre/postemergence bedstraw; type: in vivo, Galium aparine
Method in brief: (§1)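 Response is a visual 0-to-10 score relative to untreated plants, where 0 means no effect and 10 means complete control, taken twelve to sixteen days after application. Treatments went onto soil at planting and onto foliage of 1- to 4-leaf plants, using a surfactant-containing non-phytotoxic solvent.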

blackgrass = experiment: Test B pre/postemergence blackgrass; type: in vivo, Alopecurus myosuroides
Method in brief: as §1

surinam grass = experiment: Test B pre/postemergence surinam grass; type: in vivo, Brachiaria decumbens; conditions: Postemergence
Method in brief: as §1

cocklebur = experiment: Test B pre/postemergence cocklebur; type: in vivo, Xanthium strumarium
Method in brief: as §1

corn = experiment: Test B pre/postemergence corn; type: in vivo, Zea mays
Method in brief: as §1

crabgrass = experiment: Test B pre/postemergence crabgrass; type: in vivo, Digitaria sanguinalis
Method in brief: as §1

giant foxtail = experiment: Test B pre/postemergence giant foxtail; type: in vivo, Setaria faberii
Method in brief: as §1

morningglory = experiment: Test B pre/postemergence morningglory; type: in vivo, Ipomoea hederacea
Method in brief: as §1

pigweed = experiment: Test B pre/postemergence pigweed; type: in vivo, Amaranthus retroflexus
Method in brief: as §1

rape = experiment: Test B pre/postemergence rape; type: in vivo, Brassica napus
Method in brief: as §1

soybean = experiment: Test B pre/postemergence soybean; type: in vivo, Glycine max
Method in brief: as §1

sugar beet = experiment: Test B pre/postemergence sugar beet; type: in vivo, Beta vulgaris
Method in brief: as §1

velvetleaf = experiment: Test B pre/postemergence velvetleaf; type: in vivo, Abutilon theophrasti
Method in brief: as §1

wheat = experiment: Test B pre/postemergence wheat; type: in vivo, Triticum aestivum
Method in brief: as §1

wild oat = experiment: Test B pre/postemergence wild oat; type: in vivo, Avena fatua
Method in brief: as §1

purple nutsedge = experiment: Test B pre/postemergence purple nutsedge; type: in vivo, Cyperus rotundus
Method in brief: as §1

[1] = Postemergence, Rate 62 g/ha, scale 0 to 10, 0 is no effect, 10 is complete control
[2] = Postemergence, Rate 125 g/ha, scale of 0 to 10 where 0 is no effect and 10 is complete control
[3] = Preemergence, Rate 125 g/ha, scale of 0 to 10 where 0 is no effect and 10 is complete control
[4] = Preemergence, Rate 250 g/ha, scale 0 (no effect) to 10 (complete control)
[5] = Rate 62 g/ha, Preemergence, scale 0 to 10
[6] = Rate 250 g/ha, Postemergence, scale 0 to 10, 0 is no effect, 10 is complete control
[7] = Rate 500 g/ha, Postemergence, scale 0 to 10, 0 is no effect, 10 is complete control
[8] = Rate 500 g/ha, Preemergence, scale 0 to 10 (0 no effect, 10 complete control)

CC(C)N(C(=O)n1oc(=O)n(C(C)C(=S)N(C)C)c1=O)c1ccc(F)cc1F (stereo not shown) [Compound 739]
9: Crabgrass plant response rating (crabgrass; [2]) | Crabgrass plant response rating (crabgrass; [4]) | Crabgrass plant response rating (crabgrass; [7]) | Giant foxtail plant response rating (giant foxtail; [2]) | Plant response rating, Giant foxtail (giant foxtail; [3]) | Giant foxtail plant response rating (giant foxtail; [4]) | Giant foxtail plant response rating (giant foxtail; [5]) | Giant foxtail plant response rating (giant foxtail; [6]) | Giant foxtail plant response rating (giant foxtail; [7]) | Redroot pigweed plant response rating (pigweed; [4])
6: Bedstraw plant response rating (bedstraw; [7]) | Blackgrass plant response rating (blackgrass; [7]) | Plant response rating, Morningglory (morningglory; [1]) | Morningglory plant response rating (morningglory; [6]) | Wheat plant response rating (wheat; [7])
4: Bedstraw plant response rating (bedstraw; [6]) | Plant response rating, Crabgrass (crabgrass; [1]) | Soybean plant response rating (soybean; [6]) | Sugarbeets plant response rating (sugar beet; [7]) | Sugarbeets plant response rating (sugar beet; [8]) | Wild oats plant response rating (wild oat; [8])
0: Bedstraw plant response rating (bedstraw; [5]) | Plant response rating, Blackgrass (blackgrass; [1]) | Plant response rating, B. signalgrass (surinam grass; Rate 62 g/ha, scale 0 to 10, 0 is no effect, 10 is complete control) | Plant response rating, Cocklebur (cocklebur; [3]) | Cocklebur plant response rating (cocklebur; [4]) | Cocklebur plant response rating (cocklebur; [5]) | Cocklebur plant response rating (cocklebur; [8]) | Plant response rating, Corn (corn; [1]) | Corn plant response rating (corn; [2]) | Plant response rating, Corn (corn; [3]) | Corn plant response rating (corn; [5]) | Corn plant response rating (corn; [6]) | Corn plant response rating (corn; [7]) | Plant response rating, Morningglory (morningglory; [3]) | Morningglory plant response rating (morningglory; [4]) | Morningglory plant response rating (morningglory; [5]) | Morningglory plant response rating (morningglory; [8]) | Plant response rating, Redroot pigweed (pigweed; [1]) | Plant response rating, Rape (rape; [1]) | Rape plant response rating (rape; [2]) | Plant response rating, Rape (rape; [3]) | Rape plant response rating (rape; [4]) | Rape plant response rating (rape; [5]) | Rape plant response rating (rape; [6]) | Plant response rating, Soybean (soybean; [3]) | Soybean plant response rating (soybean; [4]) | Soybean plant response rating (soybean; [5]) | Soybean plant response rating (soybean; [8]) | Plant response rating, Velvetleaf (velvetleaf; [1]) | Velvetleaf plant response rating (velvetleaf; [2]) | Plant response rating, Velvetleaf (velvetleaf; [3]) | Velvetleaf plant response rating (velvetleaf; [5]) | Velvetleaf plant response rating (velvetleaf; [6]) | Plant response rating, Wheat (wheat; [1]) | Wheat plant response rating (wheat; [2]) | Plant response rating, Wheat (wheat; [3]) | Wheat plant response rating (wheat; [4]) | Wheat plant response rating (wheat; [5]) | Plant response rating, Wild oats (wild oat; [1]) | Wild oats plant response rating (wild oat; [2]) | Plant response rating, Wild oats (wild oat; [3]) | Wild oats plant response rating (wild oat; [4]) | Wild oats plant response rating (wild oat; [5]) | Wild oats plant response rating (wild oat; [6]) | Wild oats plant response rating (wild oat; [7]) | Plant response rating, Nutsedge (purple nutsedge; [1]) | Plant response rating, Nutsedge (purple nutsedge; [3]) | Nutsedge plant response rating (purple nutsedge; [4]) | Nutsedge plant response rating (purple nutsedge; [5]) | Nutsedge plant response rating (purple nutsedge; [6]) | Nutsedge plant response rating (purple nutsedge; [8])
7: B. signalgrass plant response rating (surinam grass; Rate 500 g/ha, scale 0 to 10, 0 is no effect, 10 is complete control) | Plant response rating, Giant foxtail (giant foxtail; [1])
8: Morningglory plant response rating (morningglory; [7])
5: Redroot pigweed plant response rating (pigweed; [7]) | Soybean plant response rating (soybean; [7])
3: Plant response rating, Bedstraw (bedstraw; [1]) | Bedstraw plant response rating (bedstraw; [2]) | Blackgrass plant response rating (blackgrass; [2]) | Plant response rating, Blackgrass (blackgrass; [3]) | Blackgrass plant response rating (blackgrass; [4]) | Blackgrass plant response rating (blackgrass; [6]) | Cocklebur plant response rating (cocklebur; [7]) | Redroot pigweed plant response rating (pigweed; [2]) | Redroot pigweed plant response rating (pigweed; [6]) | Plant response rating, Soybean (soybean; [1]) | Soybean plant response rating (soybean; [2]) | Plant response rating, Sugarbeets (sugar beet; [1]) | Sugarbeets plant response rating (sugar beet; [2]) | Sugarbeets plant response rating (sugar beet; [6]) | Velvetleaf plant response rating (velvetleaf; [7]) | Velvetleaf plant response rating (velvetleaf; [8]) | Wheat plant response rating (wheat; [8]) | Nutsedge plant response rating (purple nutsedge; [7])
2: Blackgrass plant response rating (blackgrass; [5]) | B. signalgrass plant response rating (surinam grass; Rate 125 g/ha, scale of 0 to 10 where 0 is no effect and 10 is complete control) | B. signalgrass plant response rating (surinam grass; Rate 250 g/ha, scale 0 to 10, 0 is no effect, 10 is complete control) | Plant response rating, Cocklebur (cocklebur; [1]) | Cocklebur plant response rating (cocklebur; [2]) | Cocklebur plant response rating (cocklebur; [6]) | Corn plant response rating (corn; [4]) | Corn plant response rating (corn; [8]) | Plant response rating, Crabgrass (crabgrass; [3]) | Crabgrass plant response rating (crabgrass; [5]) | Plant response rating, Redroot pigweed (pigweed; [3]) | Redroot pigweed plant response rating (pigweed; [5]) | Rape plant response rating (rape; [7]) | Rape plant response rating (rape; [8]) | Plant response rating, Sugarbeets (sugar beet; [3]) | Sugarbeets plant response rating (sugar beet; [4]) | Sugarbeets plant response rating (sugar beet; [5]) | Velvetleaf plant response rating (velvetleaf; [4]) | Wheat plant response rating (wheat; [6])
10: Plant response rating, Bedstraw (bedstraw; [3]) | Bedstraw plant response rating (bedstraw; [4]) | Bedstraw plant response rating (bedstraw; [8]) | Blackgrass plant response rating (blackgrass; [8]) | Crabgrass plant response rating (crabgrass; [8]) | Giant foxtail plant response rating (giant foxtail; [8]) | Redroot pigweed plant response rating (pigweed; [8])
